These are literature values, as cited in patent publication US20220142892A1, “PROCESS FOR THE PREPARATION AND USE OF HAIR TREATMENT COMPOSITIONS CONTAINING ORGANIC C1-C6 ALKOXY SILANES” (Henkel AG & Co. KGaA, priority 2019, published 2022).

The conditions of this data set: 25° C.

Take `O=S(=O)([O-])c1ccc(N=Nc2c(O)ccc3ccccc23)cc1.[Na+]` [Acid Orange 7, sodium salt of 4-[(2-hydroxy-1-naphthyl)azo]benzene sulphonate]: the solubility in water entry was “more than 7 g/L”. For `Nc1cc(S(=O)(=O)[O-])cc2cc(S(=O)(=O)[O-])c(N=Nc3ccccc3)c(O)c12.[Na+].[Na+]` [Acid Red 33, diantrium salt of 5-amino-4-hydroxy-3-(phenylazo)-naphthalene-2,7-disulphonate], the solubility in water is reported as 2.5 g/L. Consider `O=C([O-])c1c(Cl)c(Cl)c(Cl)c(Cl)c1-c1c2c(Br)cc(=O)c(Br)c-2oc2c(Br)c(O)cc(Br)c12.O=C([O-])c1c(Cl)c(Cl)c(Cl)c(Cl)c1-c1c2c(Br)cc(=O)c(Br)c-2oc2c(Br)c(O)cc(Br)c12.[Na+].[Na+]` [Acid Red 92, disodium salt of 3,4,5,6-tetrachloro-2-(1,4,5,8-tetrabromo-6-hydroxy-3-oxoxanthen-9-yl)benzoic acid], for which the solubility in water result is listed as “greater than 10 g/L”. Consider `O=C([O-])C1=NN(c2ccc(S(=O)(=O)[O-])cc2)C(=O)C1N=Nc1ccc(S(=O)(=O)[O-])cc1.[Na+].[Na+].[Na+]` (stereo not shown) [Acid Yellow 23, trisodium salt of 4,5-dihydro-5-oxo-1-(4-sulfophenyl)-4-((4-sulfophenyl)azo)-1H-pyrazole-3-carboxylic acid], for which the “solubility in water (in words)” value is reported as “highly soluble”.
